Experimental data: PubChem BioAssay AID1963833 (Molecular Pharmacology Branch, DTP, NCI, 2024)

Tested on: 883617-216-R-J1-PDC complex spheroid viability
Assay: Anticancer human tumor 883617-216-R-J1-PDC patient-derived bladder carcinoma cell line growth inhibition [POLQ]
Settings: for IC50: curve of first compound; for viability, T/C: stronger effect = lower value
Procedure, shortened: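 Patient-derived tumour cells were co-cultured with HUVEC and mesenchymal stem cells as multicellular spheroids at 37 °C. They were treated with POLQ inhibitors (novobiocin, ART-558, RP6685) alone or combined with other agents. Top concentrations were at or near clinical Cmax (otherwise 10 microM; SN-38 at 1 microM), decreasing in half-log steps.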
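Note: spheroids exposed to compounds for seven days before readout.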
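Throughout, for viability, T/C: 100% = DMSO vehicle control viability.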

CNCc1ccc(-c2[nH]c3cc(F)cc4c3c2CCNC4=O)cc1 + Nc1ccc(C#CCN(C(=O)Cc2ncc(C(F)(F)F)cc2C(F)(F)F)c2ccc(F)cc2)nn1
IC50 (second compound 0.0316 µM): > 10 µM | IC50 (second compound 0.1 µM): > 10 µM | IC50 (second compound 0.316 µM): > 10 µM | IC50 (second compound 1 µM): > 10 µM | IC50 (second compound 3.16 µM): > 10 µM | IC50 (second compound 10 µM): > 10 µM | viability, T/C (second compound 0.0316 µM, first compound 0.0316 µM): 93.8% | viability, T/C (second compound 0.0316 µM, first compound 0.1 µM): 86.4% | viability, T/C (second compound 0.0316 µM, first compound 0.316 µM): 83.8% | viability, T/C (second compound 0.0316 µM, first compound 1 µM): 101% | viability, T/C (second compound 0.0316 µM, first compound 3.16 µM): 110% | viability, T/C (second compound 0.0316 µM, first compound 10 µM): 92.1% | viability, T/C (second compound 0.1 µM, first compound 0.0316 µM): 96.9% | viability, T/C (second compound 0.1 µM, first compound 0.1 µM): 79.8% | viability, T/C (second compound 0.1 µM, first compound 0.316 µM): 96.8% | viability, T/C (second compound 0.1 µM, first compound 1 µM): 107% | viability, T/C (second compound 0.1 µM, first compound 3.16 µM): 102% | viability, T/C (second compound 0.1 µM, first compound 10 µM): 95.2% | viability, T/C (second compound 0.316 µM, first compound 0.0316 µM): 104% | viability, T/C (second compound 0.316 µM, first compound 0.1 µM): 81.3% | viability, T/C (second compound 0.316 µM, first compound 0.316 µM): 88.4% | viability, T/C (second compound 0.316 µM, first compound 1 µM): 96.8% | viability, T/C (second compound 0.316 µM, first compound 3.16 µM): 104% | viability, T/C (second compound 0.316 µM, first compound 10 µM): 89.8% | viability, T/C (second compound 1 µM, first compound 0.0316 µM): 95.5% | viability, T/C (second compound 1 µM, first compound 0.1 µM): 105% | viability, T/C (second compound 1 µM, first compound 0.316 µM): 106% | viability, T/C (second compound 1 µM, first compound 1 µM): 113% | viability, T/C (second compound 1 µM, first compound 3.16 µM): 104% | viability, T/C (second compound 1 µM, first compound 10 µM): 76.1% | viability, T/C (second compound 3.16 µM, first compound 0.0316 µM): 92.4% | viability, T/C (second compound 3.16 µM, first compound 0.1 µM): 102% | viability, T/C (second compound 3.16 µM, first compound 0.316 µM): 91.7% | viability, T/C (second compound 3.16 µM, first compound 1 µM): 103% | viability, T/C (second compound 3.16 µM, first compound 3.16 µM): 102% | viability, T/C (second compound 3.16 µM, first compound 10 µM): 98.1% | viability, T/C (second compound 10 µM, first compound 0.0316 µM): 116% | viability, T/C (second compound 10 µM, first compound 0.1 µM): 107% | viability, T/C (second compound 10 µM, first compound 0.316 µM): 120% | viability, T/C (second compound 10 µM, first compound 1 µM): 101% | viability, T/C (second compound 10 µM, first compound 3.16 µM): 127% | viability, T/C (second compound 10 µM, first compound 10 µM): 102%
